Values of other authors in US9662414B2, “Dressing system” (Edixomed Limited, priority 2013, dated 2017).

Details: healthy 70 kg-adult

| SMILES | generally accepted safe dosage for topical anaesthesia |
| --- | --- |
| CCCCNc1ccc(C(=O)OCCN(C)C)cc1 [tetracaine] | 50 mg |
| CCN(CC)CC(=O)Nc1c(C)cccc1C [lidocaine] | 750 mg |
| COC(=O)[C@H]1[C@@H](OC(=O)c2ccccc2)C[C@@H]2CC[C@H]1N2C [cocaine] | 200 mg |
